Data reported in patent US20250002548A1, “Wild Boar Cathelicidin Peptide Variants and Vectors Encoding the Same for Uses in Managing Coronavirus Infections” (Emory University, priority 2021, published 2025).
Square brackets hold non-standard residues; d marks the D form. Peptide text beside a SMILES is read from it.

Assays:
[1] = test system: Vero E6 and HEK293T cells; settings: administered over 48 hours
SARS-CoV-2 [2] = settings: ratio of IC50 and TD50; SARS-CoV-2 vs Vero E6 cells
[3] = test system: human red blood cells (RBCs)
SARS-CoV-2 [4] = test system: SARS-CoV-2

Row | Compound | cytotoxicity [1] | therapeutic index (TI) (SARS-CoV-2 [2]) | hemolytic activity [3] | IC50 (SARS-CoV-2 [4]) [µM]
1 | CC[C@@H](C)[C@@H](NC(=O)[C@H]1CCCN1C(=O)[C@H]1CCCN1C(=O)[C@H](NC(=O)[C@@H](Cc1c[nH]c2ccccc12)NC(=O)[C@@H](CCCCN)NC(=O)[C@@H](CC(C)C)NC(=O)[C@H](NC(=O)[C@@H](CCCCN)NC(=O)CNC(=O)[C@H](NC(=O)[C@@H](CCCCN)NC(=O)[C@@H](CCCCN)NC(=O)[C@@H](CC(C)C)NC(=O)[C@@H](CCCNC(=N)N)NC(=O)[C@@H](CCCCN)NC(=O)[C@@H](CCCNC(=N)N)NC(=O)[C@H](NC(=O)[C@@H](CCCCN)NC(=O)[C@@H](CCCCN)NC(=O)[C@@H](CCCNC(=N)N)NC(=O)[C@@H](CC(C)C)NC(=O)[C@@H](CCCNC(=N)N)NC(=O)[C@@H](CCCNC(=N)N)NC(=O)[C@@H](Cc1ccccc1)NC(=O)[C@@H](CCCNC(=N)N)NC(=O)CNC(=O)[C@H](N)C(C)C)[C@H](C)O)[C@H](C)CC)C(C)C)[C@H](C)CC)C(=O)N[C@@H](C(=O)NCC(=O)N[C@H](CO)C(=O)N[C@@H](C(=O)N1CCC[C@@H]1C(=O)N[C@H](CC(C)C)C(=O)NCC(=O)N[C@H](CO)C(=O)NCC(=O)O)[C@H](C)CC)C(C)C [D-Yongshi] (H-[dV]G[dR][dF][dR][dR][dL][dR][dK][dK][dT][dR][dK][dR][dL][dK][dK][dI]G[dK][dV][dL][dK][dW][dI][dP][dP][dI][dV]G[dS][dI][dP][dL]G[dS]G-OH) | significantly increased cytotoxicity | 1.64 |  | 
2 | CC[C@H](C)[C@H](NC(=O)[C@H](CCCCN)NC(=O)[C@H](CCC(=O)O)NC(=O)[C@H](CCCCN)NC(=O)[C@H](CO)NC(=O)[C@H](CCCCN)NC(=O)[C@H](CCCNC(=N)N)NC(=O)[C@H](Cc1ccccc1)NC(=O)[C@H](Cc1ccccc1)NC(=O)[C@H](CC(=O)O)NC(=O)CNC(=O)[C@H](CC(C)C)NC(=O)[C@@H](N)CC(C)C)C(=O)NCC(=O)N[C@@H](CCCCN)C(=O)N[C@@H](CCC(=O)O)C(=O)N[C@@H](Cc1ccccc1)C(=O)N[C@@H](CCCCN)C(=O)N[C@@H](CCCNC(=N)N)C(=O)N[C@H](C(=O)N[C@H](C(=O)N[C@@H](CCC(N)=O)C(=O)N[C@@H](CCCNC(=N)N)C(=O)N[C@H](C(=O)N[C@@H](CCCCN)C(=O)N[C@@H](CC(=O)O)C(=O)N[C@@H](Cc1ccccc1)C(=O)N[C@@H](CC(C)C)C(=O)N[C@@H](CCCNC(=N)N)C(=O)N[C@@H](CC(N)=O)C(=O)N[C@@H](CC(C)C)C(=O)N[C@H](C(=O)N1CCC[C@H]1C(=O)N[C@@H](CCCNC(=N)N)C(=O)N[C@H](C(=O)N[C@@H](CCC(=O)O)C(=O)N[C@@H](CO)C(=O)O)[C@@H](C)O)C(C)C)[C@@H](C)CC)C(C)C)[C@@H](C)CC [LL-37, reference compound] |  |  | significant hemolytic activity | 
3 | CC[C@H](C)[C@H](NC(=O)[C@H](CCCCN)NC(=O)[C@H](CCCCN)NC(=O)[C@H](CC(C)C)NC(=O)[C@H](CCCNC(=N)N)NC(=O)[C@H](CCCCN)NC(=O)[C@H](CCCNC(=N)N)NC(=O)[C@@H](NC(=O)[C@H](CCCCN)NC(=O)[C@H](CCCCN)NC(=O)[C@H](CCCNC(=N)N)NC(=O)[C@H](CC(C)C)NC(=O)[C@H](CCCNC(=N)N)NC(=O)[C@H](CCCNC(=N)N)NC(=O)[C@H](Cc1ccccc1)NC(=O)[C@H](CCCNC(=N)N)NC(=O)CNC(=O)[C@@H](N)C(C)C)[C@@H](C)O)C(=O)NCC(=O)N[C@@H](CCCCN)C(=O)N[C@H](C(=O)N[C@@H](CC(C)C)C(=O)N[C@@H](CCCCN)C(=O)N[C@@H](Cc1c[nH]c2ccccc12)C(=O)N[C@H](C(=O)N1CCC[C@H]1C(=O)N1CCC[C@H]1C(=O)N[C@H](C(=O)N[C@H](C(=O)NCC(=O)N[C@@H](CO)C(=O)N[C@H](C(=O)N1CCC[C@H]1C(=O)N[C@@H](CC(C)C)C(=O)NCC(=O)N[C@@H](CS)C(=O)NCC(=O)O)[C@@H](C)CC)C(C)C)[C@@H](C)CC)[C@@H](C)CC)C(C)C [PMAP-36R] (H-VGRFRRLRKKTRKRLKKIGKVLKWIPPIVGSIPLGCG-OH; N-terminus and C-terminus assumed) | greater toxicity than LL-37 |  | significant hemolytic activity | 12
4 | CC[C@H](C)[C@H](NC(=O)[C@H](CCCCN)NC(=O)[C@H](CCCCN)NC(=O)[C@H](CC(C)C)NC(=O)[C@H](CCCNC(=N)N)NC(=O)[C@H](CCCCN)NC(=O)[C@H](CCCNC(=N)N)NC(=O)[C@@H](NC(=O)[C@H](CCCCN)NC(=O)[C@H](CCCCN)NC(=O)[C@H](CCCNC(=N)N)NC(=O)[C@H](CC(C)C)NC(=O)[C@H](CCCNC(=N)N)NC(=O)[C@H](CCCNC(=N)N)NC(=O)[C@H](Cc1ccccc1)NC(=O)[C@H](CCCNC(=N)N)NC(=O)CNC(=O)[C@@H](N)C(C)C)[C@@H](C)O)C(=O)NCC(=O)N[C@@H](CCCCN)C(=O)N[C@H](C(=O)N[C@@H](CC(C)C)C(=O)N[C@@H](CCCCN)C(=O)N[C@@H](Cc1c[nH]c2ccccc12)C(=O)N[C@H](C(=O)N1CCC[C@H]1C(=O)N1CCC[C@H]1C(=O)N[C@H](C(=O)N[C@H](C(=O)NCC(=O)N[C@@H](CO)C(=O)N[C@H](C(=O)N1CCC[C@H]1C(=O)N[C@@H](CC(C)C)C(=O)NCC(=O)N[C@@H](CO)C(=O)NCC(=O)O)[C@@H](C)CC)C(C)C)[C@@H](C)CC)[C@@H](C)CC)C(C)C [Yongshi] (H-VGRFRRLRKKTRKRLKKIGKVLKWIPPIVGSIPLGSG-OH) | decreased cytotoxicity compared to the parent PMAP-36R and LL-37 | 3.50 | significantly reduced hemolytic activity | 
